The values that follow come from patent US9169260B2 (MERCK SHARP & DOHME CORP., priority 2011, dated 2015).

Sequence of GST tagged IRAK-4 (Q9NWZ3 whole entry): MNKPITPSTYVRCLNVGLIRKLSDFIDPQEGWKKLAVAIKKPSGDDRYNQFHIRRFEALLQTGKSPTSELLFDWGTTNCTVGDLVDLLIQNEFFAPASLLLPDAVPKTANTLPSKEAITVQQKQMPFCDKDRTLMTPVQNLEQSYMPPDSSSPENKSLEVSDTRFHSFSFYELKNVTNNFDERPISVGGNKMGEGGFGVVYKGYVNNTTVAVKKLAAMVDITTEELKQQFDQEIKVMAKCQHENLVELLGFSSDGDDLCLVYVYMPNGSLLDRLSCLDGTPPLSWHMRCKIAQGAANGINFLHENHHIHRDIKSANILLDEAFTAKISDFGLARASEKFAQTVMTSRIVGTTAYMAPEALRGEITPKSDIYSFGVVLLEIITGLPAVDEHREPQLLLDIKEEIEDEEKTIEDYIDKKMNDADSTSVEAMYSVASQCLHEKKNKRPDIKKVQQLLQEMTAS

The first experiment addresses GST tagged IRAK-4 (Homo sapiens (Human), UniProt Q9NWZ3). As to the kind of experiment: IRAK-4 Kinase Assay (IMAP fluorescence polarization). Type of experiment: biochemical. The following applies: 100 μM ATP, 30 minutes at 25° C. As for the experimental part: The kinase activity of IRAK-4 is determined by its ability to catalyze the phosphorylation of a fluorescent polypeptide substrate. The extent of phosphorylation is measured using the IMAP technology (Molecular Devices) where the phosphorylated fluorescent substrate binds to the large M(III)-based nanoparticles which reduces the rotational speed of the substrate and thus increases its fluorescent polarization (FP).
20 μl reaction mixture contains 10 mM TriHCl, pH 7.2, 0.5 nM GST tagged IRAK-4 (SignalChem), 100 nM fluorescent peptide substrate (RP7030, Molecular Devices), 100 μM ATP, 1 mM DTT, 1 mM MgCl2, and 0.01% Tween 20. The reaction is initiated by the addition of ATP. After incubation for 30 minutes at 25° C., 60 μl of Progressive IMAP Reagent (Molecular Devices) is added to stop the reaction. Change in RP7030's FP is determined by a FP reader (Analyst HT, LH, BioSystems).
(Polarisation of emitted light reports the rotation of a fluorescent probe.)
As a reminder, the IC50 is the concentration that gives 50% inhibition. On to `Cc1ccc(-n2nc(-c3ccc(CN4CCCC4)cc3)cc2NC(=O)c2cnn3cccnc23)cc1` [Example 143, N-(3-(4-(pyrrolidin-1-ylmethyl)phenyl)-1-(p-tolyl)-1H-pyrazol-5-yl)pyrazolo[1,5-a]pyrimidine-3-carboxamide], for which the IC50 was < 0.1 µM.

As to `Cc1ccc(-n2nc(C3CCN(S(C)(=O)=O)CC3)cc2NC(=O)c2cnn3cccnc23)cc1` [Example 18, N-(3-(1-(methylsulfonyl)piperidin-4-yl)-1-(p-tolyl)-1H-pyrazol-5-yl)pyrazolo[1,5-a]pyrimidine-3-carboxamide], the IC50 was < 0.1 µM.

With `Cc1ccc(-n2nc(C3CN(Cc4cn[nH]c4)C3)cc2NC(=O)c2cnn3cccnc23)cc1` [Example 305, N-{1-(4-methylphenyl)-3-[1-(1H-pyrazol-4-ylmethyl)azetidin-3-yl]-1H-pyrazol-5-yl}pyrazolo[1,5-a]pyrimidine-3-carboxamide], the IC50 is < 0.1 µM.

With `O=C(Nc1cc(C2CCNCC2)nn1-c1c(F)cc(C2CC2)cc1F)c1cnn2cccnc12` [Example 77, N-(1-(4-cyclopropyl-2,6-difluorophenyl)-3-(piperidin-4-yl)-1H-pyrazol-5-yl)pyrazolo[1,5-a]pyrimidine-3-carboxamide], the 50% inhibitory concentration (IC50) was < 0.1 µM.

As for `COc1ccc(-n2nc(C3CCN(S(C)(=O)=O)CC3)cc2NC(=O)c2cnn3cccnc23)c(F)c1` [Example 64, N-(1-(2-fluoro-4-methoxyphenyl)-3-(1-(methylsulfonyl)piperidin-4-yl)-1H-pyrazol-5-yl)pyrazolo[1,5-a]pyrimidine-3-carboxamide], the IC50 is < 0.1 µM.

Take `Cc1ccc(-n2nc(C3CCN(C4CCC4)CC3)cc2NC(=O)c2cnn3cccnc23)c(F)c1` [Example 59, N-(3-(1-cyclobutylpiperidin-4-yl)-1-(2-fluoro-4-methylphenyl)-1H-pyrazol-5-yl)pyrazolo[1,5-a]pyrimidine-3-carboxamide]: the IC50 was < 0.1 µM.

As to `CC(C)N1CC(c2cc(NC(=O)c3cnn4cccnc34)n(-c3ccc(C4CC4)cc3F)n2)C1` [Example 88, N-(1-(4-cyclopropyl-2-fluorophenyl)-3-(1-isopropylazetidin-3-yl)-1H-pyrazol-5-yl)pyrazolo[1,5-a]pyrimidine-3-carboxamide], the IC50 was < 0.1 µM.

For the compound `Cc1ccc(-n2nc(C3CCN(C4CCC4)CC3)cc2NC(=O)c2cnn3cccnc23)cc1` [Example 38, N-(3-(1-cyclobutylpiperidin-4-yl)-1-(p-tolyl)-1H-pyrazol-5-yl)pyrazolo[1,5-a]pyrimidine-3-carboxamide], the IC50 is < 0.1 µM.

`Cc1ccc(-n2nc(C3CCN(C4CCC(N(C)S(C)(=O)=O)CC4)CC3)cc2NC(=O)c2cnn3cccnc23)nc1` (stereo not shown) [Example 262, N-[3-(1-{4-[methyl(methylsulfonyl)amino]cyclohexyl}piperidin-4-yl)-1-(5-methylpyridin-2-yl)-1H-pyrazol-5-yl]pyrazolo[1,5-a]pyrimidine-3-carboxamide]: the IC50 was < 0.1 µM.

Staying with this experiment, now noted: 100 μM ATP, 30 minutes at 25° C.; μM.
For the compound `Cc1ccc(-n2nc(C3CCC(C(=O)O)CC3)cc2NC(=O)c2cnn3cccnc23)cc1` (stereo not shown) [Example 94, 4-(5-(pyrazolo[1,5-a]pyrimidine-3-carboxamido)-1-(p-tolyl)-1H-pyrazol-3-yl)cyclohexanecarboxylic acid], the half-maximal inhibitory concentration (IC50) is > 1 µM.

`COc1ccc(S(=O)(=O)N2CCC(c3cc(NC(=O)c4cnn5cccnc45)n(-c4ccc(C)cc4)n3)CC2)c(OC)c1` [Example 372, N-[3-{1-[(2,4-dimethoxyphenyl)sulfonyl]piperidin-4-yl}-1-(4-methylphenyl)-1H-pyrazol-5-yl]pyrazolo[1,5-a]pyrimidine-3-carboxamide]: the IC50 was < 1 µM.

As for `COc1ccc(-c2cc(NC(=O)c3cnn4cccnc34)n(-c3ccc(C)cc3)n2)cn1` [Example 124, N-(3-(6-methoxypyridin-3-yl)-1-(p-tolyl)-1H-pyrazol-5-yl)pyrazolo[1,5-a]pyrimidine-3-carboxamide], the half-inhibitory concentration (IC50) is < 1 µM.

Consider `Cc1ccc(-n2nc(C3CCN(C4CCC(F)(F)CC4)CC3)cc2NC(=O)c2cnn3cccnc23)cc1` [Example 259, N-{3-[1-(4,4-difluorocyclohexyl)piperidin-4-yl]-1-(4-methylphenyl)-1H-pyrazol-5-yl}pyrazolo[1,5-a]pyrimidine-3-carboxamide], for which the IC50 was < 1 µM.

`COc1ccc(-c2cc(NC(=O)c3cnn4cccnc34)n(-c3ccc(C)cc3)n2)cc1` [Example 131, N-(3-(4-methoxyphenyl)-1-(p-tolyl)-1H-pyrazol-5-yl)pyrazolo[1,5-a]pyrimidine-3-carboxamide]: the IC50 is < 1 µM.

As to `Cc1ccc(-n2nc(-c3ccc(N)cc3)cc2NC(=O)c2cnn3cccnc23)cc1` [Example 102, N-(3-(4-aminophenyl)-1-(p-tolyl)-1H-pyrazol-5-yl)pyrazolo[1,5-a]pyrimidine-3-carboxamide], the concentration for half-maximal inhibition (IC50) was < 1 µM.

Regarding `COc1ccc(-n2nc(C3CCNCC3)cc2NC(=O)c2cnn3cc(Br)cnc23)cc1` [Example 104, 6-bromo-N-(1-(4-methoxyphenyl)-3-(piperidin-4-yl)-1H-pyrazol-5-yl)pyrazolo[1,5-a]pyrimidine-3-carboxamide], the IC50 is < 1 µM.

As for `CNC(=O)c1cccc(-c2cc(NC(=O)c3cnn4cccnc34)n(-c3ccc(C)cc3)n2)c1` [Example 350, N-{3-[3-(methylcarbamoyl)phenyl]-1-(4-methylphenyl)-1H-pyrazol-5-yl}pyrazolo[1,5-a]pyrimidine-3-carboxamide], the IC50 was < 1 µM.

Take `Cc1ccc(-n2nc(C3CCN(C(C)c4ncccc4F)CC3)cc2NC(=O)c2cnn3cccnc23)cc1` (stereo not shown) [Example 212, N-(3-(1-(1-(3-fluoropyridin-2-yl)ethyl)piperidin-4-yl)-1-(p-tolyl)-1H-pyrazol-5-yl)pyrazolo[1,5-a]pyrimidine-3-carboxamide]: the IC50 is < 1 µM.

As to `O=C(Nc1cc(C2CCN(S(=O)(=O)C3CC3)CC2)nn1-c1ccc(F)cc1)c1cnn2cccnc12` [Example 22, N-(3-(1-(cyclopropylsulfonyl)piperidin-4-yl)-1-(4-fluorophenyl)-1H-pyrazol-5-yl)pyrazolo[1,5-a]pyrimidine-3-carboxamide], the IC50 was < 1 µM.

For the compound `Cc1ccc(-n2nc(C3CCN(S(=O)(=O)c4cccnc4Cl)CC3)cc2NC(=O)c2cnn3cccnc23)cc1` [Example 388, N-[3-{1-[(2-chloropyridin-3-yl)sulfonyl]piperidin-4-yl}-1-(4-methylphenyl)-1H-pyrazol-5-yl]pyrazolo[1,5-a]pyrimidine-3-carboxamide], the IC50 was < 1 µM.

For the compound `Cc1ccc(-n2nc(C3CCN(S(=O)(=O)c4ccc(N5CCOCC5)nc4)CC3)cc2NC(=O)c2cnn3cccnc23)cc1` [Example 383, N-[1-(4-methylphenyl)-3-{1-[(6-morpholin-4-ylpyridin-3-yl)sulfonyl]piperidin-4-yl}-1H-pyrazol-5-yl]pyrazolo[1,5-a]pyrimidine-3-carboxamide], the IC50 is < 1 µM.

Turning to `N#Cc1ccc(-n2nc(C3CCNCC3)cc2NC(=O)c2cnn3cccnc23)cc1` [Example 12, N-(1-(4-cyanophenyl)-3-(piperidin-4-yl)-1H-pyrazol-5-yl)pyrazolo[1,5-a]pyrimidine-3-carboxamide], the IC50 is > 1 µM.
